The NIST ThermoML archive (doi:10.1021/je401097f)
Numbers after ± are expanded uncertainties.

Columns and labels:
[1] = refractive index (other wavelength) (dimensionless); conditions: 100 kPa, Liquid, Wavelength=632.8 nm, Standard Abbe refractometry
[2] = refractive index (other wavelength) (dimensionless); xn = mol fraction of the nth substance listed; conditions: 296.36 K, 100 kPa, Liquid, Wavelength=632.8 nm, Standard Abbe refractometry

O=[N+]([O-])c1ccccc1 [nitrobenzene]
[1]
Conditions | refractive index
288.97 K | 1.5501 ± 0.0004
289.62 K | 1.5497 ± 0.0004
290.5 K | 1.5493 ± 0.0004
291.45 K | 1.5488 ± 0.0004
292.36 K | 1.5484 ± 0.0004
293.38 K | 1.5479 ± 0.0004
294.4 K | 1.5474 ± 0.0004
295.5 K | 1.5469 ± 0.0004
301.66 K | 1.5439 ± 0.0004
302.72 K | 1.5433 ± 0.0004
303.85 K | 1.5428 ± 0.0004
304.98 K | 1.5423 ± 0.0004
306.08 K | 1.5418 ± 0.0004
307.2 K | 1.5412 ± 0.0004
308.25 K | 1.5407 ± 0.0004
309.34 K | 1.5402 ± 0.0004

O=[N+]([O-])c1ccccc1 [nitrobenzene] + CCCCCCCCC
[2]
Conditions | refractive index
x1 = 0.153 | 1.4162 ± 0.0004
x1 = 0.2 | 1.4207 ± 0.0005
x1 = 0.275 | 1.4284 ± 0.0005
x1 = 0.379 | 1.4401 ± 0.0005
x1 = 0.541 | 1.4612 ± 0.0005
x1 = 0.594 | 1.4691 ± 0.0005
x1 = 0.688 | 1.4838 ± 0.0005
x1 = 0.799 | 1.5035 ± 0.0006
x1 = 0.896 | 1.5231 ± 0.0006
x1 = 1 | 1.5467 ± 0.0004

CCCCCCCCC [nonane]
[1]
Conditions | refractive index
290.88 K | 1.4053 ± 0.0004
291.94 K | 1.4048 ± 0.0004
292.73 K | 1.4044 ± 0.0004
293.55 K | 1.404 ± 0.0004
294.5 K | 1.4036 ± 0.0004
295.51 K | 1.4031 ± 0.0004
296.48 K | 1.4026 ± 0.0004
297.42 K | 1.4022 ± 0.0004

CCCCCCCCC [nonane] + O=[N+]([O-])c1ccccc1
Conditions | refractive index
[2], x2 = 0 | 1.4029 ± 0.0004
